The test system of series [1] is rats. In words: Pedal withdrawal reflex (PWR) scoring during intravenous infusion (analgaesic potency). It counts as in vivo. Particulars: rat, i.v. infusion, dose to PWR = 1, mean (SEM), read-out: Analgaesia potency: minimal dose for loss of pedal withdrawal reflex (SEM). The procedure: (§1) The compounds were evaluated for their ability to anaesthetise rats when administered by continuous intravenous infusion, as reported previously. Compounds were administered to initially deliver 20 mg/kg/min (weight-adjusted flow) to achieve a pedal withdrawal reflex score (PWR = 1), then titrated to maintain loss of righting reflex (LORR) for 10 min. Three rats were used in each study, with each group of rats also acting as their own ketamine control. Data were collected on the total dose of drug (mg/kg), to achieve LORR and a PWR = 1, and on the time (in seconds, from cessation of the infusion) to recovery of righting reflex (RORR) (recovery from the hypnotic anaesthesia effect). Given the complexity of the experimental protocol, the total dose for LORR (Table 1) is very consistent, with ranges of only 1.5-fold within each group. The consistency of the post-sedation recovery times are expectedly lower, with ranges of about 2.5-fold. During recovery the rats were monitored for multiple signs of behavioural dysfunction (see biology section for details) and the sum of these scores (from 0 to 4, with 0 being no effect and 4 being severe dysfunction) is given in Table 2. IC50 values for inhibition of the NMDA receptor were conducted by Eurofins PanLabs, Taiwan.
(§2) All animal experiments were conducted at the Ruakura Research Centre, Hamilton, New Zealand, using experimental protocols reviewed and approved by the Ruakura Animal Ethics Committee (ethics ref 12604/13786). Adult female Sprague-Dawley rats of approximately 250–350 g were evaluated in both anaesthetic and analgaesic study protocols. All study agents were delivered by tail vein cannula connected via minibore extension tubing to mechanised infusion pump.
(§3) Following acquisition of baseline physiologic parameters (heart rate, respiratory rate, PWR, and righting reflex (RR)) ketamine or an experimental compound at 10mg/mL were commenced at a rate (weight-adjusted) to deliver 20 mg/kg/min. Dose to loss of righting reflex (LORR see below), and subsequent pedal withdrawal score of 1 (PWR see below) were recorded. Following attaining a PWR of 1, infusion rate was reduced to 6.7 mg/kg/min, then titrated in an up-and-down fashion as required to maintain both dorsal recumbency, and a PWR = 1, to 10 min before cessation. Each study used three rats, with each group of rats also acting as their own ketamine control. Prior odds/evens randomisation determined the order of study drug administration was determined by with a recovery interval of at least three hours afforded between experiments. Records of PWR and RR were made at one-minute intervals throughout, from cessation of infusion to return of righting reflex (RORR), and from cessation of infusion to the animals displaying independent locomotion (walk).
Pedal Withdrawal Reflex (PWR) scoring: Nociceptive testing in animals was conducted via 1 s application of constant pressure (firm digital pressure) over the forepaw of the animal. Pedal withdrawal reflex testing is primarily used to assess analgaesic effect, and responses are graded accordingly: 0, absent; 1, flicker; 2, moderate withdrawal; 3, fast withdrawal; 4, Fast withdrawal with cry/preceding apnoea (modified from).

The test system of series [2] is rats. Put plainly: Anaesthetic assessment by continuous intravenous infusion in rats (loss and return of righting reflex). Type of series: in vivo. Particulars: rat; for minimal effective dose: iv, i.v. infusion starting at 20 mg/kg/min, measure of sedative potency, mean (SEM), read-out: Sedation LORR: minimal dose for loss of righting reflex (SEM). As to the method:
as §1, §2, §3
Loss of Righting Reflex (LORR): This is primarily used to assess anaesthetic hypnotic effect. Righting reflex is judged absent when the rat fails to right from a position of dorsal recumbency to a position of sternal recumbency on three attempts performed in rapid succession. Dose to LORR is termed effective potency.

The target in series [3] is N-methyl-D-aspartate receptor. Put plainly: Inhibition of the NMDA receptor (Eurofins Panlabs Taiwan). Type of series: binding. Particulars: conducted by Eurofins Panlabs Taiwan. As to the method: as §1
The subject of series [4] is rats. Put plainly: Behavioural dysfunction scoring during recovery from infusion. It counts as in vivo. The conditions noted are these: rat, during wake-up; sum score 0 (no effect) to 4 (severe dysfunction); mean (SEM). As to the method: as §1
Behavioural dysfunction scoring: This was undertaken according to the following table. Observations were made over a one minute interval every five minutes from cessation of infusion until return of normal behaviours (total score = 0). A score of 1 was accorded for any positive behavioural aberration for each of four categories (maximal score 4) during wake-up.
Duration of any behavioural aberration was recorded from RORR as follows: score 0 = nil; score1 = 0–120 s; score 2 = 121–300 s; score 3 = 301–600 s; score 4 = 600+ s.

Series [5] deals with rats. Put plainly: Tail flick analgaesic assessment (composite tail flick latency, cTFL). The conditions noted are these: rat, 20 mg/kg i.v. infused over 10 min; AUC of %MPE-time curve 0-60 min; measure of analgaesic magnitude/duration. It counts as in vivo. As to the method: Analgaesic assessment protocol: Animal preparation was in accord with the anaesthetic assessment protocol above. Three rats were used in each study. Following venous cannulation, animals underwent infusion of ketamine or experimental compound at 20 mg/kg over a ten minute interval. A tail flick analgaesia meter (Colombus Instruments, Colombus, Ohio) was then used to determine thermal pain sensitivity. Radiant heat was applied using a shutter-controlled lamp as a heat source focused on a spot located 6–8 cm from the tip of the tail. The intensity of the beam was set at a level producing basal latency times between 2 and 4 s. To prevent thermal tissue injury the cut off time as set at 10 s. A digital response time indicator with a resolution of 0.1s measured the time from initiation of stimulus until tail withdrawal (the flick; TFL).
The TFL response following infusion of control and study drugs was calculated as a percentage of the maximum possible effect (MPE) such that:%MPE = [TFL (post-drug) – TFL (pre-drug)/10 s – TFL (pre-drug)] × 100%(1)
TFL latency was recorded at 5 min intervals from cessation of study drug infusion (time zero) to 60 min. Individual %MPE-time curves were constructed for each animal, and the area under the curve (AUC) adopted as a composite measure of induced analgaesia (cTFL).

In general, IC50 refers to the concentration that gives 50% inhibition. Low values mean greater potency in that assay, high ones weaker potency in that assay.

For `CC(C)OC(=O)CCNC1(c2ccccc2)CCCCC1=O` (stereo not drawn) [3a], the minimal effective dose with rats [1] and in the series with rats [2] was greater than 200 mg/kg throughout. Also, the IC50 in series [3] was greater than 1000 µM. Moreover, the “Behavioural dysfunction Score (SEM): severity on recovery” value (“Behavioural dysfunction Score (SEM)” below) in the series on rats [4] is on record as 0.5 (0.7). Also, the “Analgaesia cTFL (composite tail flick latency)” value (“Analgaesia cTFL” below) in the series on rats [5] came to 0 s.

Take `COC(=O)CCCCNC1(c2ccccc2)CCCCC1=O` (stereo not drawn) [3b]: the minimal effective dose with rats [1] is 45 mg/kg; with rats [2], 40 mg/kg. The IC50 in series [3] was 9.9 µM. Further, the “Behavioural dysfunction Score (SEM)” value in the series with rats [4] is on record as 1 (0). In addition, the “Analgaesia cTFL” value with rats [5] came to 0 s.

Regarding `CC(C)OC(=O)CCNC1(c2ccccc2F)CCCCC1=O` (stereo not drawn) [4a], the minimal effective dose turned out to be 62 mg/kg in the series with rats [1] and 59 mg/kg in the series on rats [2]. Also, the IC50 in series [3] is 249 µM. In addition, in the series on rats [4], the “Behavioural dysfunction Score (SEM)” value is 1 (0). Moreover, the “Analgaesia cTFL” value in the series on rats [5] worked out at 1297 s.

As for `COC(=O)CCCCNC1(c2ccccc2F)CCCCC1=O` (stereo not drawn) [4b], the minimal effective dose worked out at 40 mg/kg in the series on rats [1] and 35 mg/kg in the series with rats [2]. Also, the IC50 in series [3] is 3.1 µM. Also, the “Behavioural dysfunction Score (SEM)” value in the series with rats [4] is reported as 3 (1.4). For the same molecule, the “Analgaesia cTFL” value in the series on rats [5] worked out at 11 s.

Turning to `Cc1ccccc1C1(NCCC(=O)OC(C)C)CCCCC1=O` (stereo not drawn) [6a], the minimal effective dose in the series on rats [1] and with rats [2] was greater than 200 mg/kg throughout. In series [3], this molecule yielded an IC50 of 428 µM. Moreover, the “Behavioural dysfunction Score (SEM)” value with rats [4] is listed as 0 (0). Moreover, the “Analgaesia cTFL” value with rats [5] was 393 s.

Turning to `COC(=O)CCCCNC1(c2ccccc2C)CCCCC1=O` (stereo not drawn) [6b], the figures for the minimal effective dose in the series with rats [1] and in the series with rats [2] were 43 mg/kg and 37 mg/kg, respectively. Further, inhibition in series [3] was half-maximal at 3.4 µM (IC50). Further, the “Behavioural dysfunction Score (SEM)” value in the series on rats [4] is 1 (0). Besides, the “Analgaesia cTFL” value in the series with rats [5] amounted to 91 s.

Turning to `COc1ccccc1C1(NCCC(=O)OC(C)C)CCCCC1=O` (stereo not drawn) [7a], the minimal effective dose in the series with rats [1] and in the series on rats [2] was greater than 200 mg/kg throughout. The IC50 in series [3] came out at 172 µM. Besides, the “Behavioural dysfunction Score (SEM)” value with rats [4] was 0 (0). The “Analgaesia cTFL” value in the series with rats [5] came out at 313 s.

As for `COC(=O)CCCCNC1(c2ccccc2OC)CCCCC1=O` (stereo not drawn) [7b], the values for the minimal effective dose with rats [1] and in the series with rats [2] were 49 mg/kg and 34 mg/kg, respectively. In series [3], this molecule came in with an IC50 greater than 1000 µM. Besides, in the series on rats [4], the “Behavioural dysfunction Score (SEM)” value is 3 (1). In the series with rats [5], the “Analgaesia cTFL” value stood at 2332 s.

As to `CC(C)OC(=O)CCNC1(c2ccccc2C(F)(F)F)CCCCC1=O` (stereo not drawn) [8a], the minimal effective dose in the series with rats [1] and in the series with rats [2] was 64 mg/kg in each case. It took 290 µM to reach half-maximal inhibition in series [3] (IC50). The “Behavioural dysfunction Score (SEM)” value in the series on rats [4] was 2 (1). The “Analgaesia cTFL” value in the series with rats [5] was found to be 652 s.

Turning to `COC(=O)CCCCNC1(c2ccccc2C(F)(F)F)CCCCC1=O` (stereo not drawn) [8b], the results for the minimal effective dose in the series on rats [1] and in the series with rats [2] were 156 mg/kg and 154 mg/kg, respectively. In addition, in series [3], the IC50 was found to be 128 µM. Also, the “Behavioural dysfunction Score (SEM)” value with rats [4] is 1 (0). The “Analgaesia cTFL” value in the series with rats [5] amounted to 1864 s.

Consider `CC(C)OC(=O)CCNC1(c2ccccc2OC(F)(F)F)CCCCC1=O` (stereo not drawn) [9a], for which the minimal effective dose in the series on rats [1] and in the series with rats [2] was 62 mg/kg throughout. Further, in series [3], it took 184 µM to reach half-maximal inhibition (IC50). Also, the “Behavioural dysfunction Score (SEM)” value in the series on rats [4] is 1 (0). Besides, the “Analgaesia cTFL” value in the series on rats [5] came to 80 s.

For the molecule `COC(=O)CCCCNC1(c2ccc(OC)cc2)CCCCC1=O` (stereo not drawn) [17b], the “Seizure-inducing effect during infusion” value in the series with rats [2] (i.v. infusion in anaesthetic assessment protocol) is reported as “seizure-inducing effect”. Besides, half-maximal inhibition in series [3] (IC50) required 94.1 µM. Besides, the “Behavioural dysfunction Score (SEM)” value in the series with rats [4] is 3 (0). In addition, in the series on rats [5], the “Analgaesia cTFL” value was determined as 551 s.

For the molecule `COC(=O)CCCCNC1(c2cccs2)CCCCC1=O` (stereo not drawn) [20b], the minimal effective dose with rats [1] is 74 mg/kg; in the series on rats [2], 52 mg/kg. This molecule displayed an IC50 in series [3] of 8.9 µM. In addition, the “Analgaesia cTFL” value in the series on rats [5] amounted to 196 s.
